Measurements taken from patent publication US6022880A, “Substituted pyridylamino indoles” (Hoechst Marion Roussel, Inc., priority 1997, dated 2000).
Structures can show the parent of a compound that is named as a salt.

Columns and labels:
[1] = system: dopamine uptake, rat striatal synaptosomes; experiment: Inhibition of 3H-Dopamine Uptake in Rat Striatal Synaptosomes; format: biochemical, rat (male Wistar); conditions: 3H-DA 50 nM, read-out: D: Inhibition of dopamine uptake, IC50
Protocol: (D) Inhibition of ^3 H-Dopamine Uptake in Rat Striatal Synaptosomes
This assay is used to show differential drug effects on dopamine uptake versus norepinephrine uptake and to identify therapeutic agents for diseases where the potentiation of dopaminergic activity may be helpful (e.g. Parkinson's Disease).
(§1) A. Animals: Male CR Wistar Rats (100-125 g).
The final desired concentration of ^3 H-DA in the assay is 50 nM. The dilution factor is 0.9. Therefore, the KHBB is made up to contain 55.5 nM [^3 H]-5DA.
5. For most assays, a 1 mM stock solution of the test compound is made up in a suitable solvent and serially diluted such that the final concentration in the assay ranges from 2×10^-8 to 2×10^-5 M. Seven concentrations are used for each assay. Higher or lower concentrations may be used depending on the potency of the compound.
(§2) Male Wistar rats are decapitated and the brain rapidly removed. Corpora striata are rapidly removed, weighed and homogenized in 9 volumes of ice-cold 0.32 M sucrose using a Potter-Elvejhem homogenizer. Homogenization should be done with 4-5 up and down strokes at medium speeds to minimize synaptosome lysis. The homogenate is centrifuged at 1000 g for 10 min. at 0-4° C. The supernatant (S1) is decanted and is used for uptake experiments.
(§3) Tubes are incubated at 37° C. under a 95% O2 /5% CO2 atmosphere for 5 minutes. For each assay, 3 tubes are incubated with 20 μl of vehicle at 0° C. in an ice bath. After incubation all tubes are immediately centrifuged at 4000 g for 10 minutes. The supernatant fluid is aspirated and the pellets dissolved by adding 1 ml of solubilizer (Triton X-100+50% EtOH, 1:4 v/v). The tubes are vigorously vortexed, decanted into scintillation vials, and counted in 10 ml of Liquiscint scintillation counting cocktail. Active uptake is the difference between cpm at 37° C. and 0° C. The percent inhibition at each drug concentration is the mean of three determinations. IC50 values are derived from log-probit analysis.

[2] = system: norepinephrine uptake, rat whole brain or hypothalamic synaptosomes; experiment: Inhibition of [3H]-Norepinephrine Uptake in Rat Whole Brain or Hypothalamic Synaptosomes; format: biochemical, rat (male Wistar); conditions: [3H]-NE 50 nM, read-out: E: Inhibition of norepinephrine uptake, IC50
Protocol: (E) Inhibition of [^3 H]-Norepinephrine Uptake in Rat Whole Brain or Hypothalamic Synaptosomes
This assay is used as a biochemical screen for potential antidepressants which block norepinephrine uptake.
A. Animals: Male CR Wistar rats (100-125 g).
The final desired concentration of [^3 H]-NE in the assay is 50 nM. The dilution factor is 0.8.
5. For most assays, a 1 mM stock solution of the test compound is made up in a suitable solvent and serially diluted such that the final concentration in the assay ranges from 2×10^-8 to 2×10^-5 M. Seven concentrations are used for each assay.
as §2, with “Either whole brain minus cerebella or hypothalamus is” for “Corpora striata are rapidly removed,”
as §3

[3] = system: mice (scopolamine induced memory deficit); experiment: Dark Avoidance Assay (reversal of scopolamine induced memory deficit); format: in vivo, mouse; conditions: s.c.
Protocol: Dark Avoidance Assay In this assay mice are tested for their ability to remember an unpleasant stimulus for a period of 24 hours. A mouse is placed in a chamber that contains a dark compartment; a strong incandescent light drives it to the dark compartment, where an electric shock is administered through metal plates on the floor. The animal is removed from the testing apparatus and tested again, 24 hours later, for the ability to remember the electric shock. If scopolamine, an anticholinergic agent that is known to cause memory impairment, is administered before an animal's initial exposure to the test chamber, the animal re-enters the dark compartment shortly after being placed in the test chamber 24 hours later. This effect of scopolamine is blocked by an active test compound, resulting in a greater interval before re-entry into the dark compartment. The results for an active compound are expressed as the percent of a group of animals in which the effect of scopolamine is blocked, as manifested by an increased interval between being placed in the test chamber and re-entering the dark compartment.

MAO-A = biological target: T1, MAO-A (Rattus norvegicus, UniProt P21396); experiment: biochemical; design: species or system rat (male Wistar, whole brain minus cerebellum); conditions: substrate [3H]-5HT 200 μM; read-out: Inhibitory Concentration - IC50 MAO-A
T1 sequence (P21396 1-526): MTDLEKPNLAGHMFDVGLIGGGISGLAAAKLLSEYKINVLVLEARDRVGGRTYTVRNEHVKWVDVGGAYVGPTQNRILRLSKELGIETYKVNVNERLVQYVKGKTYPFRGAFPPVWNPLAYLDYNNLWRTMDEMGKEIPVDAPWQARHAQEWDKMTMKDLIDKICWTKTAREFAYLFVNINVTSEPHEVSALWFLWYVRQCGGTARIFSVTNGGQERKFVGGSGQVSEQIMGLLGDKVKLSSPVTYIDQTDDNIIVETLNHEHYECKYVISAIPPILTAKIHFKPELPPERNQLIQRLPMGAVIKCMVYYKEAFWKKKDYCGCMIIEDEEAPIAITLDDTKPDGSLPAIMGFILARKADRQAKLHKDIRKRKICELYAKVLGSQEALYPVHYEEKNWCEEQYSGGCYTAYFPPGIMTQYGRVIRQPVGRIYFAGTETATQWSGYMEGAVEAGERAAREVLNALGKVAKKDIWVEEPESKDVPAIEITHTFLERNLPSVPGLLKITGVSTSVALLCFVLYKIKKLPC
From the text: (§4) Inhibition of Type A and Type B Monoamine Oxidase Activity in Rat Brain Synaptosomes
To determine the selective inhibition of the two forms of monoamine oxidase (MAO).
Although various methods for measuring MAO activity are available, the described method involves the extraction of the radiolabeled deaminated metabolites of [^3 H]-5HT or [^14 C]-β-phenethylamine. This procedure allows MAO-A and MAO-B activities to be measured either simultaneously or individually (3).
Serotonin creatinine SO4 (5HT) is obtained from Sigma Chemical Company. A 5 mM stock solution is made up in 0.01 N HCl. This is used to dilute the specific activity of the [^3 H]-5HT.
[^3 H]-5-Hydroxytryptamine creatinine SO4 (20-30 Ci/mmol) is obtained from New England Nuclear.
Add 12 μl of [^3 H]-5HT to 2 ml of the 5 mM 5HT solution. (Final amine concentration in the assay is 200 μM: see below.)
(§5) Equal amounts of MAO-A (5HT) and MAO-B (PEA) substrates are combined for simultaneously testing both MAO types, i.e. mixed stock solution of 2.5 mM 5HT and 2.5 mM PEA, 40 μl of this mixed solution gives a 200 μM final concentration of each amine in the assay. When testing only one MAO type, the individual 5 mM stock solutions must be diluted 1:1 with distilled water prior to adding 40 μl to the incubation mixture; i.e., same 200 μM final amine concentration.
(§6) Male Wistar rats weighing 150-250 grams were sacrificed and the brains rapidly removed. Whole brain minus cerebellum was homogenized in 30 volumes of ice-cold, phosphate-buffered 0.25 M sucrose, using a Potter-Elvejhem homogenizer. The homogenate was centrifuged at 1000 g for 10 minutes and the supernatant (S1) decanted and recentrifuged at 18,000 g for 20 minutes. The resulting pellet (p2) was resuspended in fresh 0.25 M sucrose and served as the tissue source for mitochondrial MAO.
(§7) Tubes are preincubated for 15 minutes at 37° C. and the assay is started by adding 40 μl of combined substrate ([^3 H]-5HT and [^14 C]-PEA) at 15 second intervals. The tubes are incubated for 30 minutes at 37° C. and the reaction stopped by the addition of 0.3 ml 2N HCl. Tissue blank values are determined by adding the acid before the radioactive substrate. The oxidative products of the reaction are extracted with ethyl acetate/toluene (1:1). 5 ml of this mixture is added to the tubes. The resultant mixture is vortexed for 15 seconds to extract the deaminated metabolites into the organic phase and the latter is allowed to separate from the aqueous phase. The tubes are placed in acetone/dry ice bath to freeze the aqueous layer. When this layer is frozen, the top organic layer is poured into a scintillation vial. 10 ml of Liquiscint is added and the samples are counted using window settings for ^14 C in one channel and ^3 H in the second channel. IC50 values are determined by log-probit analysis.

MAO-B = biological target: T2, MAO-B (Rattus norvegicus, UniProt P19643); experiment: biochemical; design: species or system rat (male Wistar, whole brain minus cerebellum); conditions: substrate [14C]-PEA 200 μM; read-out: Inhibitory Concentration - IC50 MAO-B
T2 sequence (P19643 1-520): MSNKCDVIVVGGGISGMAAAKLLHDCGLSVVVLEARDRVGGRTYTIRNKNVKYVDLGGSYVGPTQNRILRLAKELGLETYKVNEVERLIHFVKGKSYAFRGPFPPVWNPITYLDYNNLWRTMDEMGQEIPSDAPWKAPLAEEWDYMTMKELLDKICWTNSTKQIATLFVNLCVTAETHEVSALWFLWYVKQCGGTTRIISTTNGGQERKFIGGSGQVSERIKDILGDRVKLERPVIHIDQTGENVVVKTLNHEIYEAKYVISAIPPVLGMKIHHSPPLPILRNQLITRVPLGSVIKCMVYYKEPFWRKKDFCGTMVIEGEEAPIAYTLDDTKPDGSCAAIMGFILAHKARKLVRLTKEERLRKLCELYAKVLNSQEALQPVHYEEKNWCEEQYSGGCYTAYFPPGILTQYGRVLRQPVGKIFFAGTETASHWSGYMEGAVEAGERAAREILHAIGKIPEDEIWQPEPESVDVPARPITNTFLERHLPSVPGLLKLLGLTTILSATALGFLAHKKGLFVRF
Protocol: as §4
a. β-phenethylamine (PEA) is obtained from Sigma Chemical Company. A 5 mM stock solution is made up in 0.01 N HCl. This is used to dilute the specific activity of the [^14 C]-PEA.
b. β-[ethyl-1-^14 C]-phenethylamine hydrochloride (40-50 mCi/mmol) is obtained from New England Nuclear.
Add 12 μl of [^14 C]-PEA to 2 ml of the 5 mM PEA solution. (Final amine concentration in the assay is 200 μM: see below.)
as §5, §6, §7

[4] = system: serotonin uptake, rat whole brain synaptosomes; experiment: Inhibition of [3H]-Serotonin Uptake in Rat Whole Brain Synaptosomes; format: biochemical, rat (male Wistar); conditions: [3H]-5HT 50 nM, read-out: C: Inhibition of serotonin uptake, IC50
Protocol: (C) Inhibition of [^3 H]-Serotonin Uptake in Rat Whole Brain Synaptosomes
as §1
The final desired concentration of ^3 H-5HT in the assay is 50 nM. The dilution factor is 0.8.
5. For most assays, a 1 mM solution of the test compound is made up in suitable solvent and serially diluted such that the final concentration in the assay ranges from 2×10^-8 to 2×10^-5 M. Seven concentrations are used for each assay.
as §2, with “Whole brain minus cerebella is” for “Corpora striata are rapidly removed,”
as §3, with “(Tritor.” for “(Triton”

IC50 (MAO-A) | IC50 (MAO-B) | SMILES | IC50 [1] | IC50 [2] | also measured
 |  | CN(C)CCCN1c2ccccc2CCc2ccc(Cl)cc21 [Chloripramine, reference compound] | > 20000 nM | 18600 nM | 
 |  | Nc1c2c(nc3ccccc13)CCCC2 [Tacrine, reference compound] |  |  | % of Animals with Scopolamine Induced Memory Deficit Reversal ([3]; 0.63 mg/kg of body weight): 13%
 |  | CN(C)CCC=C1c2ccccc2CCc2ccccc21 [Amitriptyline, reference compound] | > 20000 nM | 7700 nM | 
 |  | CN1CCN(C2=Nc3cc(Cl)ccc3Nc3ccccc32)CC1 [Clozapine, reference compound] | > 20000 nM | > 20000 nM | 
10.5 µM | 51 µM | Clc1ccc2c(Nc3ccncc3)csc2c1 [6-Chloro-3-(4-pyridinylamino)benzo[b]thiophene hydrochloride] |  |  | 
 |  | Clc1ccc2c(Nc3ccncc3)c[nH]c2c1 [6-Chloro-3-(4-pyridinylamino)-1H-indole, 6-Chloro-3(4-pyridinylamino)indole] |  |  | % of Animals with Scopolamine Induced Memory Deficit Reversal ([3]; 1 mg/kg of body weight): 27%; % of Animals with Scopolamine Induced Memory Deficit Reversal ([3]; 3 mg/kg of body weight): 20%; % of Animals with Scopolamine Induced Memory Deficit Reversal ([3]; 10 mg/kg of body weight): 27%
60 µM | 165 µM | FC(F)(F)c1ccc2c(Nc3ccncc3)csc2c1 [3-(4-Pyridinylamino)-6-trifluoromethylbenzo[b]thiophene hydrochloride] |  |  | 
5.3 µM | 18 µM | c1ccc2c(Nc3ccncc3)csc2c1 [3-(4-Pyridinylamino)benzo[b]thiophene hydrochloride] |  |  | 
 |  | C=CCN(c1ccncc1)c1csc2cc(Cl)ccc12 [6-Chloro-3-[(2-propenyl)(4-pyridinyl)amino]benzo[b]thiophen hydrochloride] |  | 7 nM | IC50 [4]: 0.12 µM
 |  | CN(c1ccncc1)c1cc2ccccc2s1 [2-(Methyl-4-pyridinylamino)benzo[b]thiophene hydrochloride] | 510 nM | 78 nM | IC50 [4]: 1.15 µM
 |  | O=C(O)/C=C\C(=O)O.c1ccc2c(Nc3ccncc3)c[nH]c2c1 [3-(4-pyridinylamino)-1H-indole maleate, 3-(4-Pyridinylamino)-1H-indole maleate] |  |  | % of Animals with Scopolamine Induced Memory Deficit Reversal ([3]; 10 mg/kg of body weight): 70%
182 µM | 205 µM | CCCN(c1ccncc1)c1csc2cc(OC)ccc12 [6-Methoxy-3-(propyl-4-pyridinylamino)benzo[b]thiophene hydrochloride] |  |  | 
 |  | Clc1ccc2c(N(CC3CC3)c3ccncc3)csc2c1 [6-Chloro-3-[(cyclopropylmethyl)(4-pyridyl)amino]benzo[b]thiophen hydrochloride] |  | 12 nM | IC50 [4]: 0.12 µM
 |  | Cn1cc(Nc2ccncc2)c2ccccc21.O=C(O)/C=C/C(=O)O [1-Methyl-3-(4-pyridinylamino)indole fumarate] |  |  | % of Animals with Scopolamine Induced Memory Deficit Reversal ([3]; 1 mg/kg of body weight): 33%; % of Animals with Scopolamine Induced Memory Deficit Reversal ([3]; 3 mg/kg of body weight): 29%; % of Animals with Scopolamine Induced Memory Deficit Reversal ([3]; 10 mg/kg of body weight): 27%
0.64 µM | 3.9 µM | c1ccc2c(Nc3ccncc3)noc2c1 [3-[(4-pyridinyl)amino]-1,2-benzisoxazole] |  |  | 
 |  | CC[C@@H]1C(=O)OC[C@@H]1Cc1cncn1C [Pilocarpine, reference compound] |  |  | % of Animals with Scopolamine Induced Memory Deficit Reversal ([3]; 5.0 mg/kg of body weight): 13%
 |  | O=C1CC2(CCCC2)CC(=O)N1CCCCN1CCN(c2ncccn2)CC1 [Buspirone] | > 20000 nM |  | 
3.2 µM | 17 µM | COc1ccc2c(Nc3ccncc3)csc2c1 [6-Methoxy-3(4-pyridinylamino)benzo[b]thiophene hydrochloride] |  |  | 
2.8 µM | 51 µM | Clc1ccc2c(Nc3ccncc3)noc2c1 [6-Chloro-3-[(4-pyridinyl)amino]-1,2-benzisoxazole maleate] |  |  | 
 |  | CCCN(c1ccncc1)c1cc2ccccc2s1 [2-(Propyl-4-pyridinylamino)benzo[b]thiophene hydrochloride] | 91 nM | 55 nM | IC50 [4]: 0.24 µM
